Measured values: US20100144708A1, “HETEROCYCLIC COMPOUNDS CONTAINING NITROGEN ATOMS OR PHARMACEUTICALLY ACCEPTABLE SALTS THEREOF, PROCESS FOR THE PREPARATION THEREOF AND PHARMACEUTICAL COMPOSITION COMPRISING THE SAME FOR TREATMENT OF CANCER” (Korea Research Instititute of Bioscience and Biotechnology, priority 2006, published 2010)

Assays:
[1] = tested on: human prostate cancer cell line PC-3; assay: Test for tumor growth inhibition in animal model (PC-3 xenograft); assay type: in vivo; settings: 2 mg/kg Q2D, 10 times, intraperitoneal
Protocol: Female S.P.F BALB/c nude mice (7-week-old) were grafted with 3×10^7 cells/□ of human prostate cancer cell line PC-3, and then intraperitoneally administered with the compound prepared in Example 55 at a daily dosage of 30 mg/kg 20 times. A positive control group was intraperitoneally administered with adriamycin at a daily dosage of 2 mg/kg 10 times once every two days.
The changes in their body weight are shown in FIG. 1, the changes in tumor size are shown in FIG. 2, and the tumor weights measured on the final day (day 21) are shown in FIG. 3.

PC-3 (prostate cancer) = assay: Test for inhibition of tumor cell growth (SRB), PC-3; assay type: cell-based, Human; settings: Homo sapiens; 48 hours, SRB staining; read-out: GI50 PC-3 (prostate ancer)
How it was run: (§1)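 Cells seeded in RPMI 1640 with 5% FBS, exposed to compound (final […], units as printed) for 48 hours at 37° C with 5% CO2, including a time-zero plate. TCA-fixed, SRB-stained, absorbance at 540 nm as percent of control; GI50 is the 50% growth-inhibition concentration.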

[2] = tested on: MBA-MB-231 (breast cancer); assay: Test for inhibition of tumor cell growth (SRB), MBA-MB-231; assay type: cell-based, Human; settings: Homo sapiens; 48 hours, SRB staining
How it was run: as §1

ACHN (kidney cancer) = assay: Test for inhibition of tumor cell growth (SRB), ACHN; assay type: cell-based, Human; settings: Homo sapiens, ACHN; 48 hours, SRB staining
How it was run: as §1

NUGC-3 (gastric cancer) = assay: Test for inhibition of tumor cell growth (SRB), NUGC-3; assay type: cell-based, Human; settings: Homo sapiens, NUGC-3; 48 hours, SRB staining
How it was run: as §1

| GI50 (PC-3 (prostate cancer)) [µg/mL] | GI50 [2] [µg/mL] | GI50 (ACHN (kidney cancer)) [µg/mL] | GI50 (NUGC-3 (gastric cancer)) [µg/mL] | Structure (SMILES) | deaths [1] | effect of inhibiting tumor growth ([1]; final day (day 21), p<0.01) [%] | reduction of tumor weight ([1]; final day (day 21), p<0.05) [%] |
| --- | --- | --- | --- | --- | --- | --- | --- |
| 0.4 | 0.94 | 0.4 | 0.21 | CCCCCCCCCCCCCCCC(=O)N1CCC[N+](C)(C)CC1 [Example 122, 4-hexadecanoyl-1,1-dimethyl-1,4-diazepan-1-ium iodide] |  |  |  |
| 0.18 | 0.45 | 0.44 | 0.26 | C=CC[N+]1(C)CCCN(C(=O)CCCCCCCCCCCCC)CC1 (stereo not drawn) [Example 127, 1-allyl-1-methyl-4-tetradecanoyl-1,4-diazepan-1-ium bromide] |  |  |  |
| 0.52 | 1.42 | 1.85 | 1.05 | CCCCCCCCCCCCCC(=O)N1CC[N+](CC)(Cc2cccc(F)c2)CC1 [Example 51, 1-ethyl-1-(3-fluorobenzyl)-4-tetradecanoylpiperazin-1-ium bromide] |  |  |  |
| 0.34 | 1.71 | 1.23 | 0.61 | CCCCCCCCCCCCCCCCCCCC(=O)N1CC[N+](C)(CC)CC1 [Example 30, 1-ethyl-4-icosanoyl-1-methylpiperazin-1-ium iodide] |  |  |  |
| 0.45 | 1.48 | 1.1 | 0.94 | CCCCCCCCCCCCCC(=O)N1CCC[N+](C)(Cc2ccc(F)cc2)CC1 (stereo not drawn) [Example 133, 1-(4-fluorobenzyl)-1-methyl-4-tetradecanoyl-1,4-diazepan-1-ium bromide] |  |  |  |
| 0.57 | 3.95 | 4.84 | 3.52 | CCCCCCCCCCCC(=O)N1CC[N+](CC)(Cc2cccc([N+](=O)[O-])c2)CC1 [Example 53, 4-dodecanoyl-1-ethyl-1-(3-nitrobenzyl)piperazin-1-ium bromide] |  |  |  |
| 0.75 | 1.44 | 0.74 | 0.2 | C=CC[N+]1(C)CCCN(C(=O)CCCCCCCCCCCCCCC)CC1 (stereo not drawn) [Example 120, 1-allyl-1-methyl-4-palmitoyl-1,4-diazepan-1-ium bromide] |  |  |  |
| 0.46 | 1.28 | 1.14 | 0.47 | C=CC[N+]1(C)CCN(C(=O)CCCCCCCCCCCCCCC)CC1.[Br-] [Example 17, 1-allyl-4-hexadecanoyl-1-methyl-piperazin-1-ium bromide] |  |  |  |
| 0.55 | 1.16 | 0.92 | 0.46 | CCCCCCCCCCCCCCCC(=O)N1CC[N+](CC)(Cc2ccccc2)CC1.[Br-] [Example 21, 1-benzyl-1-ethyl-4-hexadecanoyl-piperazin-1-ium bromide] |  |  |  |
| 1.42 | > 10 | > 10 | 2.07 | CCCCCCCCCCCCCC(=O)N1CC[N+](CC)(Cc2ccccc2)CC1 [Example 15, 1-benzyl-1-ethyl-4-tetradecanoyl-piperazin-1-ium bromide] |  |  |  |
| 0.57 | 2.48 | 1.48 | 0.36 | CCCCCCCCCCCC(=O)N1CCC[N+](C)(Cc2ccc(OC)cc2)CC1 (stereo not drawn) [Example 119, 4-dodecanoyl-1-(4-methoxybenzyl)-1-methyl-1,4-diazepan-1-ium chloride] |  |  |  |
| 0.31 | 1.63 | 1.39 | 0.42 | CCCCCCCCCCCCCCCCCCCC(=O)N1CC[N+](C)(C)CC1 [Example 31, 4-icosanoyl-1,1-dimethylpiperazin-1-ium iodide] |  |  |  |
| 1.81 | > 10 | > 10 | > 10 | C=CC[N+]1(C)CCN(C(=O)CCCCCCCCC)CC1 [Example 9, 1-allyl-4-decanoyl-1-methyl-piperazin-1-ium bromide] |  |  |  |
| > 10 | > 10 | > 10 | > 10 | CCCCCCCC(=O)N1CC[N+](C)(C)CC1.[I-] [Example 2, 1,1-dimethyl-4-octanoyl-piperazin-1-ium iodide] |  |  |  |
| 0.36 | 0.98 | 0.49 | 0.08 | CCCCCCCCCCCCCC(=O)N1CCC[N+](C)(C)CC1 [Example 123, 1,1-dimethyl-4-tetradecanoyl-1,4-diazepan-1-ium iodide] |  |  |  |

Further lines, the molecule ahead of its results:

| Structure (SMILES) | GI50 (PC-3 (prostate cancer)) [µg/mL] | GI50 [2] [µg/mL] | GI50 (ACHN (kidney cancer)) [µg/mL] | GI50 (NUGC-3 (gastric cancer)) [µg/mL] | deaths [1] | effect of inhibiting tumor growth ([1]; final day (day 21), p<0.01) [%] | reduction of tumor weight ([1]; final day (day 21), p<0.05) [%] |
| --- | --- | --- | --- | --- | --- | --- | --- |
| COc1cccc2c1C(=O)c1c(O)c3c(c(O)c1C2=O)C[C@@](O)(C(=O)CO)C[C@@H]3O[C@H]1C[C@H](N)[C@H](O)[C@H](C)O1 [adriamycin] |  |  |  |  | four | 74.4 | 69.8 |
| C=CC[N+]1(CC)CCN(S(=O)(=O)CCCCCCCCCCCC)CC1 [Example 85, 1-allyl-4-(dodecane-1-sulfonyl)-1-ethyl-piperazin-1-ium bromide] | 0.41 | 1.01 | 0.53 | 0.22 |  |  |  |
| CCCCCCCCCCCCS(=O)(=O)N1CC[N+](C)(CC)CC1 [Example 83, 4-(dodecane-1-sulfonyl)-1-ethyl-1-methyl-piperazin-1-ium iodide] | 0.61 | 1.42 | 0.69 | 0.45 |  |  |  |
| CCCCCCCCCCCCCCS(=O)(=O)N1CC[N+](C)(Cc2ccc(F)cc2)CC1 [Example 71, 1-(4-fluorobenzyl)-1-methyl-4-(tetradecane-1-sulfonyl)piperazin-1-ium bromide] | 0.65 | 1.14 | 1.42 | 0.82 |  |  |  |
| CCCCCCCCCCS(=O)(=O)N1CC[N+](CC)(Cc2cccc([N+](=O)[O-])c2)CC1 [Example 91, 4-(decane-1-sulfonyl)-1-ethyl-1-(3-nitrobenzyl)piperazin-1-ium bromide] | 0.83 | > 10 | 4.82 | 1.54 |  |  |  |
| CCCCCCCCCCCCCCCCCC(=O)N1CC[N+](CC)(Cc2cccc(C)c2)CC1 [Example 58, 1-ethyl-1-(3-methylbenzyl)-4-stearoylpiperazin-1-ium bromide] | 0.63 | 1.52 | 0.93 | 0.46 |  |  |  |
| CCCCCCCCCCCCS(=O)(=O)N1CC[N+](CC)(Cc2cccc([N+](=O)[O-])c2)CC1 [Example 98, 4-(dodecane-1-sulfonyl)-1-ethyl-1-(3-nitrobenzyl)piperazin-1-ium bromide] | 0.35 | 1.01 | 1.05 | 0.28 |  |  |  |
| CCCCCCCCCCCS(=O)(=O)N1CC[N+](C)(Cc2ccccc2)CC1 [Example 65, 1-benzyl-1-methyl-4-(undecane-1-sulfonyl)piperazin-1-ium bromide] | 0.42 | 0.82 | 1.16 | 0.37 |  |  |  |
| CCCCCCCCCCS(=O)(=O)N1CC[N+](C)(Cc2cccc(C)c2)CC1 [Example 106, 4-(decane-1-sulfonyl)-1-methyl-1-(3-methylbenzyl)piperazin-1-ium bromide] | 0.61 | 3.56 | 4.13 | 1.6 |  |  |  |
| C=CC[N+]1(CC)CCN(S(=O)(=O)CCCCCCCCCCCCCCCCCC)CC1 [Example 72, 1-allyl-1-ethyl-4-(octadecane-1-sulfonyl)piperazin-1-ium bromide] | 0.73 | 1.37 | 0.71 | 0.57 |  |  |  |
| CCCCCCCCCCCCCCCCCC(=O)N1CC[N+](CC)(Cc2ccc(Br)cc2)CC1 [Example 50, 1-(4-bromobenzyl)-1-ethyl-4-stearoylpiperazin-1-ium bromide] | 0.95 | 2.3 | 1.94 | 2.49 |  |  |  |
| C=CC[N+]1(C)CCN(C(=O)CCCCCCCCCCCCCCCCCCCCCCC)CC1 [Example 41, 1-allyl-1-methyl-4-tetracosanoylpiperazin-1-ium bromide] | 3.36 | > 10 | > 10 | > 10 |  |  |  |
| CCCCCCCCCS(=O)(=O)N1CC[N+](CC)(Cc2cccc([N+](=O)[O-])c2)CC1 [Example 89, 1-ethyl-1-(3-nitrobenzyl)-4-(nonylsulfonyl)piperazin-1-ium bromide] | 4.02 | > 10 | > 10 | > 10 |  |  |  |
